In general, IC50 refers to the concentration that inhibits the measured activity by half.

For the experiment, the target named is T1, Human complement C1s enzyme (Homo sapiens, UniProt P09871).
T1 sequence (P09871 438-688 limits assumed): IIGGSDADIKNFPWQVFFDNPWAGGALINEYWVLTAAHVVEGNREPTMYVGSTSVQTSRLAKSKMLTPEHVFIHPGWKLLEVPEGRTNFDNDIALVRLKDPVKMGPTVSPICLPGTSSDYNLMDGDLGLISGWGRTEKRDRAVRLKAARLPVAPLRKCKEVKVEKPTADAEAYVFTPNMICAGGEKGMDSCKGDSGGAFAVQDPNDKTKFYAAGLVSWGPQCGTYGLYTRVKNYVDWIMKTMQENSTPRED
T1 sequence (P09871 16-437 partner limits assumed): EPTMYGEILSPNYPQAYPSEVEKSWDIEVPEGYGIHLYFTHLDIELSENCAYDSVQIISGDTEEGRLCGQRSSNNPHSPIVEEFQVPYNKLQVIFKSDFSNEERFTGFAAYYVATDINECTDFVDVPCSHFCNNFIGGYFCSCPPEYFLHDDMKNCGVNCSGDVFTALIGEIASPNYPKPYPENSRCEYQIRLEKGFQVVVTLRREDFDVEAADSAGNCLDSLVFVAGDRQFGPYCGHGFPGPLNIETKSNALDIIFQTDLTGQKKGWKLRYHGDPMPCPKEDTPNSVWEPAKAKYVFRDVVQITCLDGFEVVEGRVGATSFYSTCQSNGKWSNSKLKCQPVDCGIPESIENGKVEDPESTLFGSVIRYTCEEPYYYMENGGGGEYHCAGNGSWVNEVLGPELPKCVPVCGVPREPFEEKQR
Description: Human C1s enzyme assay. Conditions: human complement C1s enzyme 1.16 nM, substrate Z-L-Lys-SBzl 100 μM, 5 min preincubation; read-out: IC50 (Stars), C1s Inhibiting Activity. It counts as biochemical. In outline:
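IC50 from nonlinear regression of reaction rates versus compound concentration, with rates taken from A405 recorded at 30 s intervals over 30 min after adding 100 μM Z-L-Lys-SBzl plus 100 μM DTNB. Enzyme was human C1s purified from serum, 1.16 nM, given 5 min compound preincubation at room temperature, pH 7.5 Tris/1 M NaCl.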

Some results are limits rather than exact numbers.

In the case of `C[C@@H](NC(=O)[C@@H]1C[C@]2(C)C[C@@H]2N1C(=O)CNC(=O)c1ccc2c(c1)Oc1ccccc1S2)c1cc2cnccc2[nH]1` [Compound 130, (1S,3S,5S)-N-((R)-1-(1H-pyrrolo[3,2-c]pyridin-2-yl)ethyl)-5-methyl-2-((phenoxathiine-3-carbonyl)glycyl)-2-azabicyclo[3.1.0]hexane-3-carboxamide], the IC50 is < 100 nM. Under `C[C@@H](NC(=O)[C@@H]1CC2(CCCC2)CN1C(=O)CNC(=O)c1ccc2c(c1)Oc1ccccc1S2)c1cc2cnccc2[nH]1` [Compound 131, (S)-N-((R)-1-(1H-pyrrolo[3,2-c]pyridin-2-yl)ethyl)-2-((phenoxathiine-3-carbonyl)glycyl)-2-azaspiro[4.4]nonane-3-carboxamide] stands < 100 nM; under `COC[C@H]1C[C@@H](C(=O)N[C@H](C)c2cc3cnccc3[nH]2)N(C(=O)CNC(=O)c2ccc3c(c2)Oc2ccccc2S3)C1` [Compound 132, (2S,4S)-N-((R)-1-(1H-pyrrolo[3,2-c]pyridin-2-yl)ethyl)-4-(methoxymethyl)-1-((phenoxathiine-3-carbonyl)glycyl)pyrrolidine-2-carboxamide], < 100 nM. Consider `CC(C)S(=O)(=O)[C@@H]1C[C@@H](C(=O)N[C@H](C)c2cc3cnccc3[nH]2)N(C(=O)CNC(=O)c2ccc3c(c2)Oc2ccccc2S3)C1` [Compound 133, (2S,4R)-N-((R)-1-(1H-pyrrolo[3,2-c]pyridin-2-yl)ethyl)-4-(isopropylsulfonyl)-1-((phenoxathiine-3-carbonyl)glycyl)pyrrolidine-2-carboxamide], for which the half-maximal inhibitory concentration (IC50) was < 100 nM.

For the molecule `C[C@@H](NC(=O)[C@@H]1C[C@@H](OC(F)F)CN1C(=O)CNC(=O)c1cccc2c1-c1ccccc1C2(F)F)c1cc2cnccc2[nH]1` [Compound 134, (2S,4R)-N-((R)-1-(1H-pyrrolo[3,2-c]pyridin-2-yl)ethyl)-1-((9,9-difluoro-9H-fluorene-4-carbonyl)glycyl)-4-(difluoromethoxy)pyrrolidine-2-carboxamide], the IC50 was > 1000 nM. For `O=C(NCc1cc2cnccc2[nH]1)[C@@H]1C[C@@H](OC(F)F)CN1C(=O)CN1Cc2ncc(-c3ccc(F)cc3F)cc2C1=O` [Compound 135, (2S,4R)-N-((1H-pyrrolo[3,2-c]pyridin-2-yl)methyl)-4-(difluoromethoxy)-1-(2-(3-(2,4-difluorophenyl)-5-oxo-5,7-dihydro-6H-pyrrolo[3,4-b]pyridin-6-yl)acetyl)pyrrolidine-2-carboxamide], the IC50 is > 1000 nM. Under `C[C@@]12C[C@@H]1N(C(=O)CNC(=O)c1ccc(Oc3ccccc3)cn1)[C@H](C(=O)NCc1cc3cnccc3[nH]1)C2` [Compound 136, (1S,3S,5S)-N-((1H-pyrrolo[3,2-c]pyridin-2-yl)methyl)-5-methyl-2-((5-phenoxypicolinoyl)glycyl)-2-azabicyclo[3.1.0]hexane-3-carboxamide] stands 100 to 1000 nM; under `O=C(NCC(=O)N1C[C@H](OC(F)F)C[C@H]1C(=O)NCc1cc2cnccc2[nH]1)c1ccc(Oc2ccccc2)cn1` [Compound 137, N-(2-((2S,4R)-2-(((1H-pyrrolo[3,2-c]pyridin-2-yl)methyl)carbamoyl)-4-(difluoromethoxy)pyrrolidin-1-yl)-2-oxoethyl)-5-phenoxypicolinamide], < 100 nM; under `O=C(NCc1cc2cnccc2[nH]1)[C@@H]1C[C@@H](OC(F)F)CN1C(=O)CN1Cc2ncc(-c3ccc(F)cc3)cc2C1=O` [Compound 138, (2S,4R)-N-((1H-pyrrolo[3,2-c]pyridin-2-yl)methyl)-4-(difluoromethoxy)-1-(2-(3-(4-fluorophenyl)-5-oxo-5,7-dihydro-6H-pyrrolo[3,4-b]pyridin-6-yl)acetyl)pyrrolidine-2-carboxamide], > 1000 nM.

With `C[C@@]12C[C@@H]1N(C(=O)CNC(=O)c1ccc(Oc3ccc(C(F)(F)F)cc3)cc1)[C@H](C(=O)NCc1cc3cnccc3[nH]1)C2` [Compound 139, (1S,3S,5S)-N-((1H-pyrrolo[3,2-c]pyridin-2-yl)methyl)-5-methyl-2-((4-(4-(trifluoromethyl)phenoxy)benzoyl)glycyl)-2-azabicyclo[3.1.0]hexane-3-carboxamide], the IC50 lay within 100 to 1000 nM. The result for `O=C(NCC(=O)N1C[C@H](OC(F)F)C[C@H]1C(=O)NCc1cc2cnccc2s1)c1ccc2c(c1)Oc1ccccc1S2` [Compound 141, (2S,4R)-4-(difluoromethoxy)-1-((phenoxathiine-3-carbonyl)glycyl)-N-(thieno[3,2-c]pyridin-2-ylmethyl)pyrrolidine-2-carboxamide] reads < 100 nM; that for `Cc1cc(C(=O)NCC(=O)N2C[C@H](OC(F)F)C[C@H]2C(=O)N[C@H](C)c2cc3cnccc3[nH]2)ccc1Oc1ccc(F)cc1` [Compound 143, (2S,4R)-N-((R)-1-(1H-pyrrolo[3,2-c]pyridin-2-yl)ethyl)-4-(difluoromethoxy)-1-((4-(4-fluorophenoxy)-3-methylbenzoyl)glycyl)pyrrolidine-2-carboxamide], < 100 nM; that for `O=C(NCC(=O)N1CC2(C[C@H]1C(=O)NCc1cc3cnccc3[nH]1)OCCO2)c1cccc(Oc2ccccc2)c1` [Compound 144, (S)-N-((1H-pyrrolo[3,2-c]pyridin-2-yl)methyl)-7-((3-phenoxybenzoyl)glycyl)-1,4-dioxa-7-azaspiro[4.4]nonane-8-carboxamide], < 100 nM. On to `C[C@@H](NC(=O)[C@@H]1C[C@@H](C2OCCCO2)CN1C(=O)CNC(=O)c1ccc2c(c1)Oc1ccccc1S2)c1cc2cnccc2[nH]1` [Compound 145, (2S,4R)-N-((R)-1-(1H-pyrrolo[3,2-c]pyridin-2-yl)ethyl)-4-(1,3-dioxan-2-yl)-1-((phenoxathiine-3-carbonyl)glycyl)pyrrolidine-2-carboxamide], for which the IC50 is < 100 nM. As to `C[C@@H](NC(=O)[C@@H]1C[C@H](C2OCCCO2)CN1C(=O)CNC(=O)c1ccc2c(c1)Oc1ccccc1S2)c1cc2cnccc2[nH]1` [Compound 146, (2S,4S)-N-((R)-1-(1H-pyrrolo[3,2-c]pyridin-2-yl)ethyl)-4-(1,3-dioxan-2-yl)-1-((phenoxathiine-3-carbonyl)glycyl)pyrrolidine-2-carboxamide], the IC50 is < 100 nM. As to `C[C@@H](NC(=O)[C@@H]1C[C@]2(C)C[C@@H]2N1C(=O)CNC(=O)c1ccc(-c2ccc(F)cc2F)cc1)c1cc2cnccc2[nH]1` [Compound 147, (1S,3S,5S)-N-((R)-1-(1H-pyrrolo[3,2-c]pyridin-2-yl)ethyl)-2-((2′,4′-difluoro-[1,1′-biphenyl]-4-carbonyl)glycyl)-5-methyl-2-azabicyclo[3.1.0]hexane-3-carboxamide], the IC50 is 100 to 1000 nM. The result for `C[C@@H](NC(=O)[C@@H]1C[C@](F)(CO)CN1C(=O)CNC(=O)c1ccc2c(c1)Oc1ccccc1S2)c1cc2cnccc2[nH]1` [Compound 148, (2S,4R)-N-((R)-1-(1H-pyrrolo[3,2-c]pyridin-2-yl)ethyl)-4-fluoro-4-(hydroxymethyl)-1-((phenoxathiine-3-carbonyl)glycyl)pyrrolidine-2-carboxamide] reads < 100 nM; that for `COC[C@@H]1C[C@@H](C(=O)N[C@H](C)c2cc3cnccc3[nH]2)N(C(=O)CNC(=O)c2ccc3c(c2)Oc2ccccc2S3)C1` [Compound 149, (2S,4R)-N-((R)-1-(1H-pyrrolo[3,2-c]pyridin-2-yl)ethyl)-4-(methoxymethyl)-1-((phenoxathiine-3-carbonyl)glycyl)pyrrolidine-2-carboxamide], < 100 nM; that for `C[C@@H](NC(=O)[C@@H]1C[C@@H](c2nccs2)CN1C(=O)CNC(=O)c1ccc2c(c1)Oc1ccccc1S2)c1cc2cnccc2[nH]1` [Compound 150, (2S,4R)-N-((R)-1-(1H-pyrrolo[3,2-c]pyridin-2-yl)ethyl)-1-((phenoxathiine-3-carbonyl)glycyl)-4-(thiazol-2-yl)pyrrolidine-2-carboxamide], < 100 nM. For the molecule `O=C(NCC(=O)N1CC[C@@H](O)[C@H]1C(=O)NCc1cc2cnccc2[nH]1)c1ccc(Oc2ccccc2)cc1` [Compound 151, (2S,3R)-N-((1H-pyrrolo[3,2-c]pyridin-2-yl)methyl)-3-hydroxy-1-((4-phenoxybenzoyl)glycyl)pyrrolidine-2-carboxamide], the concentration for half-maximal inhibition (IC50) was in the range of 100 to 1000 nM. The result for `C[C@@]12C[C@@H]1N(C(=O)CNC(=O)c1cccc(Oc3ccccc3)c1)[C@H](C(=O)NCc1cc3cnccc3[nH]1)C2` [Compound 152, (1S,3S,5S)-N-((1H-pyrrolo[3,2-c]pyridin-2-yl)methyl)-5-methyl-2-((3-phenoxybenzoyl)glycyl)-2-azabicyclo[3.1.0]hexane-3-carboxamide] reads < 100 nM; that for `C[C@@]12C[C@@H]1N(C(=O)CNC(=O)c1cccc(Oc3ccc(F)cc3)c1)[C@H](C(=O)NCc1cc3cnccc3[nH]1)C2` [Compound 153, (1S,3S,5S)-N-((1H-pyrrolo[3,2-c]pyridin-2-yl)methyl)-2-((3-(4-fluorophenoxy)benzoyl)glycyl)-5-methyl-2-azabicyclo[3.1.0]hexane-3-carboxamide], < 100 nM.

Source of the values: patent US20260062443A1 (ALEXION PHARMACEUTICALS, INC., priority 2022, published 2026).
